Like-named read-outs stand apart in the source and are kept apart here.
Key:
[1] = tested on: Mcl-1 levels in MDA-MB-468 cells; experiment: Western blotting of Mcl-1 levels in intact breast cancer cells; conditions: 40 μM for 16 h
Protocol: (§2) The cells were then processed for Western blotting exactly as described by us previously [16, 38]. […] We next evaluated the effects of the compounds on programed cell death (apoptosis) by determining their ability to induce cleaved caspase 3 in MDA-MB-468 cells.
(§3) Treatment of the human breast cancer (MDA-MB-468) cells and Western blotting were performed using the methods described by us previously [16, 38].

[2] = tested on: MDA-MB-468 cells; experiment: MTT assay; conditions: read-out: estimated IC50, inhibition of MDA-MB-468 cell growth
Protocol: In addition, the ability of the compounds to inhibit tumor growth of MDA-MB-468 cells was determined by MTT assays. To this end, MDA-MB-468 cells were treated for 48 h with the compounds at 0, 0.5, 5 and 50 μM, and the cells were processed for MTT assays as described by us [39].
MDA-MB-468 cells were treated and processed for MTT, DAPI nuclear staining and phase imaging of cells as described previously by us [39].

[3] = tested on: MDA-MB-468 cells; experiment: Apoptosis induction (cleaved caspase 3, Western blotting); conditions: 40 μM for 16 h
Protocol: as §2, §3

[4] = target: T1, Mcl-1/Bim (Homo sapiens, UniProt Q07820); experiment: ELISA, disruption of Mcl-1 binding to Bim; conditions: for IC50: ELISA; for fold more potent than 1 against Mcl-1/Bim: ELISA IC50 vs. marinopyrrole A (1)
T1 sequence (Q07820 whole entry): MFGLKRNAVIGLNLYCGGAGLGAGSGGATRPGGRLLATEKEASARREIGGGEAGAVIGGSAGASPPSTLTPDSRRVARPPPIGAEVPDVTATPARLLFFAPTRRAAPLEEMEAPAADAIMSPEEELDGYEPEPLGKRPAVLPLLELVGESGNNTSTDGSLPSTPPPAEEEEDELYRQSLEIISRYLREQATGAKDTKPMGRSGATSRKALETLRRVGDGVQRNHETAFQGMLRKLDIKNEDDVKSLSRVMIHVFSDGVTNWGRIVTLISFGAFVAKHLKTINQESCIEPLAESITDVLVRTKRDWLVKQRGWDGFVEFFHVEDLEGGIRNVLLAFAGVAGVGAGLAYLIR
Protocol: (§1) ELISAs were performed using a similar procedure as previously described. Briefly, 40 nM of biotinylated Bim BH3 peptide (Biomatik, Wilmington, DE, USA) in SuperBlock blocking buffer (Thermo Scientific Pierce, Rockford, IL, USA) was incubated in high-binding capacity streptavidin coated plates (Thermo Scientific Pierce, Rockford, IL, USA) for 2 h. Compounds were diluted in 120 µL of PBS containing 10 nM of GST-Mcl-1 or 10 nM GST-Bcl-xL in 1.5-mL tubes for 15 min. Wells were washed with wash buffer (PBS containing 0.05% Tween-20) and then 100 µL of the compound/GST-protein mixture was transferred to the Bim-containing wells. The plates were incubated for 2 h, and then, the wells were washed with wash buffer. HRP-conjugated anti-GST antibody (Bethyl Laboratories, Montgomery, TX, USA) was diluted 1:2000 in SuperBlock, and 100 µL were transferred to each well. The plate was incubated for 1 h, and then, the wells were washed with wash buffer followed by PBS. One hundred microliters of SureBlue TMB Microwell Peroxidase Substrate (VWR International, Radnor, PA, USA) was added to each well, and the plates were developed for 5–10 min. One hundred microliters of 1 N HCl was added to each well to stop the reaction, and the absorbance was read at 450 nm using a µQuant plate reader (Bio-Tek Instruments, Winooski, VT, USA).

[5] = target: T2, Bcl-xL/Bim (Homo sapiens, UniProt Q07817); experiment: ELISA, disruption of Bcl-xL binding to Bim; conditions: for IC50: ELISA; for fold more potent than 1 against Bcl-xL/Bim: ELISA IC50 vs. marinopyrrole A (1)
T2 sequence (Q07817 whole entry): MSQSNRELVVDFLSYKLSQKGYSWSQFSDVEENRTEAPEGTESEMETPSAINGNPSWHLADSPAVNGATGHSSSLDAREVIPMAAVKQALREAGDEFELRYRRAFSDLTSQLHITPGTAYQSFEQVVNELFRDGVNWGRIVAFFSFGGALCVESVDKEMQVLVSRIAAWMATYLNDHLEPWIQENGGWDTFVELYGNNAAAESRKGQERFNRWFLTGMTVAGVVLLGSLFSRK
Protocol: as §1

[6] = target: T1, Mcl-1/Bim; conditions: ELISA; average ± SEM, n ≥ 3; data previously reported; cited from earlier work
[7] = aqueous; stated without method or reference; cited from earlier work
[8] = target: T2, Bcl-xL/Bim; parameters: method as in PMID 24608970; conditions: ELISA; average ± SEM, n ≥ 3; data previously reported; cited from earlier work
[9] = target: T3, Mcl-1 (Homo sapiens, UniProt Q07820); experiment: Fluorescence-quenching direct binding assay (intrinsic Trp fluorescence); conditions: 2.5 μM His-tagged Mcl-1 (residues 172–327), pH 7.6
T3 construct: Recombinant His-tagged Mcl-1 (residues 172–327) was purified as previously described; His; made in house
T3 sequence (Q07820 172-327): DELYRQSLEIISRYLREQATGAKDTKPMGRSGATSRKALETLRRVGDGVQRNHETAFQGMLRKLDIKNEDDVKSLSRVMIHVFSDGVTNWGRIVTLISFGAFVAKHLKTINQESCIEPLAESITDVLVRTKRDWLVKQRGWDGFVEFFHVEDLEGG
Protocol: To confirm direct binding of the compounds to Mcl-1, we have established a fluorescence-quenching assay based on the intrinsic Trp fluorescence of Mcl-1 [37].
Recombinant His-tagged Mcl-1 (residues 172–327) was purified as previously described. Intrinsic Trp fluorescence of Mcl-1 was measured with a TECAN M1000 plate reader at excitation wavelength of 285 nm and emission wavelengths of 310–400 nm. Serial dilutions of compound 9 (starting from 20 μM) in 20 mM K-phosphate pH 7.6, […] was used to assay compound binding using 2.5 μM of Mcl-1. Each condition is run at triplicate and binding constants are calculated by nonlinear regression analysis of dose response curves using Prism software 6.0 (Graphpad, La Jolla, CA, USA). Control experiments included titration of DMSO solvent and fluorescence quenching of denatured Mcl-1 in the presence of compound.

[10] = average ± SEM, n ≥ 3, 10 nM GST-Mcl-1, 40 nM biotinylated Bim BH3 peptide, read-out: Mcl-1/Bim IC50
[11] = average ± SEM, n ≥ 3 (n = 2 where given), 10 nM GST-Bcl-xL, 40 nM biotinylated Bim BH3 peptide, read-out: Bcl-xL/Bim IC50
[12] = read-out: IC50 Mcl-1/Bim disruption (abstract)
[13] = read-out: IC50 Bcl-xL/Bim disruption (abstract)

Compound | IC50 ([2]; Homo sapiens, MDA-MB-468, 48 h) [µM] | IC50 [4, 10] [µM] | IC50 [5, 11] [µM] | fold more potent than 1 against Mcl-1/Bim [4] | IC50 [4, 12] [µM] | fold more potent than 1 against Bcl-xL/Bim [5] [fold] | IC50 [5, 13] [µM] | selectivity for Mcl-1/Bim over Bcl-xL/Bim ([4]; ratio of ELISA IC50 values) [fold] | Kd [9] [µM] | decrease in the levels of Mcl-1 [1] | induction of apoptosis (cleaved caspase 3) [3] | IC50 [6] [µM] | IC50 ([2]; MTT, 48 h, compounds at 0, 0.5, 5 and 50 μM, estimated) [µM] | solubility [7] | IC50 [8] [µM]
CCOC(=O)c1cc(Cl)c(Cl)n1-c1c(C(=O)c2ccccc2O)[nH]c(Cl)c1Cl [Compound 11] | 2 | – | – | – | – | – | – | – | – | highly potent | potently induced apoptosis | – | – | – | –
CCOC(=O)CS(=O)(=O)c1ccc(C(=O)c2[nH]c(Cl)c(Cl)c2-n2c(C(=O)c3ccc(S(=O)(=O)CC(=O)OCC)cc3O)cc(Cl)c2Cl)c(O)c1 [Compound 6] | 50 | 37.3 ± 3.1 | > 100 | – | – | – | – | – | – | highly potent | potently induced apoptosis | – | – | – | –
O=C(c1ccccc1O)c1[nH]c(Cl)c(Cl)c1-n1c(C(=O)c2ccccc2O)cc(Cl)c1Cl [Compound 1, marinopyrrole A, reference compound] | – | 25.1 ± 4.7 | 96.6 | – | – | – | – | – | – | significant decrease | potently induced apoptosis | 8.9 ± 1 | 2 | poor solubility | 16.4 ± 3.3
O=C(O)CS(=O)(=O)c1ccc(C(=O)c2[nH]c(Cl)c(Cl)c2-n2c(C(=O)c3ccc(S(=O)(=O)CC(=O)O)cc3O)cc(Cl)c2Cl)c(O)c1 [Compound 10] | 20 | 63 ± 5.4 | > 100 | – | – | – | – | – | – | highly potent | potently induced apoptosis | – | – | – | –
CCOC(=O)c1[nH]c(Cl)c(Cl)c1-n1c(C(=O)c2ccccc2O)cc(Cl)c1Cl [Compound 12] | 16 | 11.5 ± 1.9 | 17.6 ± 4.5 | – | – | – | – | – | – | moderately active | weak | – | – | – | –

More lines, main results first:

IC50 ([2]; Homo sapiens, MDA-MB-468, 48 h) [µM] | IC50 [4, 10] [µM] | IC50 [5, 11] [µM] | fold more potent than 1 against Mcl-1/Bim [4] | IC50 [4, 12] [µM] | fold more potent than 1 against Bcl-xL/Bim [5] [fold] | IC50 [5, 13] [µM] | selectivity for Mcl-1/Bim over Bcl-xL/Bim ([4]; ratio of ELISA IC50 values) [fold] | Kd [9] [µM] | Compound | decrease in the levels of Mcl-1 [1] | induction of apoptosis (cleaved caspase 3) [3] | IC50 [6] [µM] | IC50 ([2]; MTT, 48 h, compounds at 0, 0.5, 5 and 50 μM, estimated) [µM] | solubility [7] | IC50 [8] [µM]
28 | 0.7 ± 0.2 | 0.6 ± 0.2 | 12.7 fold | 0.6 | 27.3 | 0.7 | – | – | O=C(c1ccc(SCc2ccccc2)cc1O)c1[nH]c(Cl)c(Cl)c1-n1c(C(=O)c2ccc(SCc3ccccc3)cc2O)cc(Cl)c1Cl [Compound 4, (4,4′,5,5′-Tetrachloro-1′H-1,3′-bipyrrole-2,2′-diyl)bis(((2-hydroxy-4-benzylthio)phenyl)methanone)] | highly potent | potently induced apoptosis | – | – | – | –
29 | 6.1 ± 1.3 | > 100 | – | – | – | – | 16.4 | 2.7 | O=C(O)CSc1ccc(C(=O)c2[nH]c(Cl)c(Cl)c2-n2c(C(=O)c3ccc(SCC(=O)O)cc3O)cc(Cl)c2Cl)c(O)c1 [Compound 9] | moderately active | weak | – | – | – | –
3 | 1.8 ± 0.3 | 1.2 ± 0.2 | five | – | – | – | – | – | CCOC(=O)CSc1ccc(C(=O)c2[nH]c(Cl)c(Cl)c2-n2c(C(=O)c3ccc(SCC(=O)OCC)cc3O)cc(Cl)c2Cl)c(O)c1 [Compound 3] | highly potent | potently induced apoptosis | – | – | – | –
50 | 0.7 ± 0.1 | 0.6 ± 0.1 | 12.7 fold | 0.6 | 27.3 | 0.7 | – | – | COc1ccc(CSc2ccc(C(=O)c3[nH]c(Cl)c(Cl)c3-n3c(C(=O)c4ccc(SCc5ccc(OC)cc5)cc4O)cc(Cl)c3Cl)c(O)c2)cc1 [Compound 5] | highly potent | potently induced apoptosis | – | – | – | –
20 | 7.3 ± 1.4 | 69.3 ± 15.8 | – | – | – | – | – | – | O=C(c1ccc(S(=O)(=O)Cc2ccccc2)cc1O)c1[nH]c(Cl)c(Cl)c1-n1c(C(=O)c2ccc(S(=O)(=O)Cc3ccccc3)cc2O)cc(Cl)c1Cl [Compound 7, (4,4′,5,5′-Tetrachloro-1′H-1,3′-bipyrrole-2,2′-diyl)bis(((2-hydroxy-4-benzylsulfonyl)phenyl)methanone)] | – | potently induced apoptosis | – | – | – | –
50 | 17.4 ± 3.1 | > 100 | – | – | – | – | – | – | COc1ccc(CS(=O)(=O)c2ccc(C(=O)c3[nH]c(Cl)c(Cl)c3-n3c(C(=O)c4ccc(S(=O)(=O)Cc5ccc(OC)cc5)cc4O)cc(Cl)c3Cl)c(O)c2)cc1 [Compound 8] | moderately active | weak | – | – | – | –
